Test results: ChEMBL document CHEMBL1122614, “Antiinflammatory activity of N-(2-benzoylphenyl)alanine derivatives” (J Med Chem, 1984)
Several values for one entry are separate records, joined by “and”; a condition that tells them apart may be missing. Equal values may be shown once. Activity calls are given as the source filed them. The calls are words filed in the database; no cut-off is given here.

Legend:
Rattus norvegicus [1] = assay: Percentage change in volume of pleural fluid in the 5-h Evans Blue-Carrageenan pleural assay for the compound at dose 4 mg/kg; format: functional
Rattus norvegicus [2] = assay: Percentage change in volume of pleural fluid in the 5-h Evans Blue-Carrageenan pleural assay for the compound at dose 100 mg/kg; format: functional
Rattus norvegicus [3] = assay: Oral antiinflammatory activity, measured in rats at the dose of 316 mg/kg; format: functional
Rattus norvegicus [4] = assay: Percentage change in volume of pleural fluid in the 5-h Evans Blue-Carrageenan pleural assay for Indomethacin 4.0 mg/kg; format: functional
Rattus norvegicus [5] = assay: Percentage change in volume of pleural fluid in the 5-h Evans Blue-Carrageenan pleural assay for the compound at dose 20 mg/kg; format: functional
Rattus norvegicus [6] = species: Rattus norvegicus; assay: Percentage change in volume of pleural fluid in the 5-h Evans Blue-Carrageenan pleural assay for the compound; format: functional
Rattus norvegicus [7] = assay: Percentage change in volume of pleural fluid in the 5-h Evans Blue-Carrageenan pleural assay for the compound at (100 mg/kg); format: functional
Cyclooxygenase = molecular target: T1, Cyclooxygenase (Bos taurus, UniProt O62664+O62698)
T1 sequence (O62664 whole entry): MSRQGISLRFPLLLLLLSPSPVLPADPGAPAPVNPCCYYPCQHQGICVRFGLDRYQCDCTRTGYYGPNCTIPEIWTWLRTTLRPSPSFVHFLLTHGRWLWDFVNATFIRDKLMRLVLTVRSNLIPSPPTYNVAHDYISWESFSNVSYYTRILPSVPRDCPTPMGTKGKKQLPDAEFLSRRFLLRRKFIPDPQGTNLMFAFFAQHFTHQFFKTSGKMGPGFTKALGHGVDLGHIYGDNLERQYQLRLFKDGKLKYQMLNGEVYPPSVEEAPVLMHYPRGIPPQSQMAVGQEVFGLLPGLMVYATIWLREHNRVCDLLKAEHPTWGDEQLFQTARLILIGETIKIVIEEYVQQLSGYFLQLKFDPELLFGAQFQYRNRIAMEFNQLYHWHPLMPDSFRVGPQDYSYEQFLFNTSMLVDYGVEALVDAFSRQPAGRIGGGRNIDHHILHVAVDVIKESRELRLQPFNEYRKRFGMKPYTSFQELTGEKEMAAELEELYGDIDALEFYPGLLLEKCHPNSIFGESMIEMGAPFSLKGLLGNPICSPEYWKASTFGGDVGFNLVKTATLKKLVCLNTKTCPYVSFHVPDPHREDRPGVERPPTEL
T1 sequence (O62698 whole entry): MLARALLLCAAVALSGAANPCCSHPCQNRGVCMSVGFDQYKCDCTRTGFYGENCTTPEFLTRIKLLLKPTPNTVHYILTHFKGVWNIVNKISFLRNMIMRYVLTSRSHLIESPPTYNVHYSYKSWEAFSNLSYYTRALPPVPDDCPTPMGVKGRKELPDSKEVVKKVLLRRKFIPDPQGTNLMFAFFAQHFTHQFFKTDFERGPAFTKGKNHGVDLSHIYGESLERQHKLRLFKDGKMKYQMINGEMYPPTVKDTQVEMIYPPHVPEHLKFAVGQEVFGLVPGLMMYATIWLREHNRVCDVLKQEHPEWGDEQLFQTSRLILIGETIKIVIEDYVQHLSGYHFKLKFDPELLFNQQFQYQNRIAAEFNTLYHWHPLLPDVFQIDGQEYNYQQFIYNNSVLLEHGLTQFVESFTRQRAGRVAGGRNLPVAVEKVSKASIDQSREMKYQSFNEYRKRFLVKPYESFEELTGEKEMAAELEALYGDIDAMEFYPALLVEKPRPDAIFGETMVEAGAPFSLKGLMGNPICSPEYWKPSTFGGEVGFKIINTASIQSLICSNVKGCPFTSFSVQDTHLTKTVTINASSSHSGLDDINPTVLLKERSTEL
Description: Inhibition of PG synthetase activity obtained from bovine seminal vesicles

Rattus norvegicus [8] = assay: Percentage change in volume of pleural fluid in the 5-h Evans Blue-Carrageenan pleural assay for the compound at dose 20 m/kg; format: functional
Rattus norvegicus [9] = assay: Percentage change in volume of pleural fluid in the 5-h Evans Blue-Carrageenan pleural assay for Indomethacin at dose 4.0 mg/kg; format: functional
Rattus norvegicus [10] = assay: Percentage change in volume of pleural fluid in the 5-h Evans Blue-Carrageenan pleural assay for the compound at dose 80 m/kg; format: functional
Rattus norvegicus [11] = assay: Percentage change in volume of pleural fluid in the 5-h Evans Blue-Carrageenan pleural assay for the compound at dose 100 m/kg; format: functional
Rattus norvegicus [12] = assay: Percentage change in volume of pleural fluid in the 5h- Evans Blue-Carrageenan pleural assay for the compound at dose 80 mg/kg; format: functional
Rattus norvegicus [13] = assay: Relative Oral Anti inflammatory activity in the 5-h Evans Blue-Carrageenan pleural assay using indomethacin as reference compound; IA = inactive at 316 mg/kg; format: functional, organism-based; set-up: dose 316 mg/kg

CC(Nc1ccccc1C(=O)c1ccc(Br)cc1)C(=O)O (configuration not stated) was tested, and the Change (Rattus norvegicus [1]) was -3%, the Change (Rattus norvegicus [2]) was -29% and the Efficacy ratio (Rattus norvegicus [3]; 316 mg/kg) was 1.43 and 1.46. It also gave a Change (Rattus norvegicus [4]) of -25%.

With Cc1ccc(C(=O)c2ccccc2NC(C)C(=O)O)cc1 (configuration not stated) the Change (Rattus norvegicus [1]) was -8%, the Change (Rattus norvegicus [2]) was -21% and the Efficacy ratio (Rattus norvegicus [3]; 316 mg/kg) was 1.39 and 1.52. It also gave a Change (Rattus norvegicus [4]) of -35%.

In the case of Cc1ccc(C(=O)c2ccccc2)c(NC(C)C(=O)O)c1 (configuration not stated), the Change (Rattus norvegicus [5]) is reported as -19%, the Efficacy ratio (Rattus norvegicus [3]; 316 mg/kg) is reported as 1.88 and 1.46 and the Change (Rattus norvegicus [4]) is reported as -28%.

In the case of CC(Nc1ccc(Cl)cc1C(=O)c1ccccc1)C(=O)O (configuration not stated), the Change (Rattus norvegicus [1]) is reported as 6%, the Change (Rattus norvegicus [2]; 100 mg/kg) is reported as -28% and -18% and the Efficacy ratio (Rattus norvegicus [3]; 316 mg/kg) is reported as 1.96 and 1.57.

Molecule CN(CC(=O)O)c1ccccc1C(=O)c1ccccc1.Cl has a Change (Rattus norvegicus [6]) of -13% and a Change (Rattus norvegicus [4]) of -38%.

COc1ccc(NC(C)C(=O)O)c(C(=O)c2ccccc2)c1 (configuration not stated) was tested, and the Efficacy ratio (Rattus norvegicus [3]; 316 mg/kg) was 1.06 and 1.52.

O=C(O)CCNc1ccccc1C(=O)c1ccccc1 was tested, and the Efficacy ratio (Rattus norvegicus [3]; 316 mg/kg) was 1.35 and 1.46, the Change (Rattus norvegicus [7]) was -9% and the Change (Rattus norvegicus [4]) was -41%.

Cc1c(NCC(=O)O)cccc1C(=O)c1ccc(Cl)cc1 was tested, and the IC50 (Cyclooxygenase) was > 1000 µM.

With CC(CNc1ccccc1C(=O)c1ccccc1)C(=O)O.Cl (configuration not stated) the Efficacy ratio (Rattus norvegicus [3]; 316 mg/kg) was 0.97 and 1.4.

In the case of CC(Nc1cccc(C(=O)c2ccccc2)c1)C(=O)O.Cl (configuration not stated), the Efficacy ratio (Rattus norvegicus [3]; 316 mg/kg) is reported as 1.38 and 1.4, the Change (Rattus norvegicus [7]) is reported as -15% and the Change (Rattus norvegicus [4]) is reported as -32%.

With CC(Nc1ccccc1C(=O)c1ccccc1)C(=O)O (configuration not stated) the Change (Rattus norvegicus [8]) was 4%, the Change (Rattus norvegicus [9]; 4 mg/kg) was -20% and -30% and the Change (Rattus norvegicus [10]) was -32%. The Change (Rattus norvegicus [11]) was -28% and the Efficacy ratio (Rattus norvegicus [3]; 316 mg/kg) was 1.6 and 1.66.

In the case of O=C(O)CNc1ccccc1C(=O)c1ccccc1, the Efficacy ratio (Rattus norvegicus [3]; 316 mg/kg) is reported as 0.98 and 1.47.

In the case of CC(Nc1ccc(C(=O)c2ccccc2)cc1)C(=O)O (configuration not stated), the Efficacy ratio (Rattus norvegicus [3]; 316 mg/kg) is reported as 1.37 and 1.91, the Change (Rattus norvegicus [7]) is reported as -4% and the Change (Rattus norvegicus [4]) is reported as -31%.

For CC(Nc1ccccc1Oc1ccccc1)C(=O)O (configuration not stated), the Efficacy ratio (Rattus norvegicus [3]; 316 mg/kg) was 1.18 and 1.52.

With CC(Nc1ccc(Cl)cc1C(=O)c1ccc(Br)cc1)C(=O)O (configuration not stated) the Efficacy ratio (Rattus norvegicus [3]; 316 mg/kg) was 1.1 and 1.57.

With COc1ccc(C(=O)c2ccccc2NC(C)C(=O)O)cc1 (configuration not stated) the Change (Rattus norvegicus [1]) was -9%, the Change (Rattus norvegicus [2]) was -22% and the Efficacy ratio (Rattus norvegicus [3]; 316 mg/kg) was 1.8 and 1.94. For the same molecule, the Change (Rattus norvegicus [4]) was -35%.

Molecule Cc1ccc(NC(C)C(=O)O)c(C(=O)c2ccccc2)c1 (configuration not stated) has a Change (Rattus norvegicus [9]) of -31%, a Change (Rattus norvegicus [2]) of -15% and an Efficacy ratio (Rattus norvegicus [3]) of 1.52.

With CC(Nc1ccccc1C(=O)c1ccc(Cl)cc1Cl)C(=O)O (configuration not stated) the Change (Rattus norvegicus [1]) was -3%, the Change (Rattus norvegicus [2]) was -34% and the Efficacy ratio (Rattus norvegicus [3]; 316 mg/kg) was 1.44 and 1.52. The Change (Rattus norvegicus [4]) was -32%.

CC(C)Nc1ccccc1C(=O)c1ccccc1.Cl was tested, and the Efficacy ratio (Rattus norvegicus [3]; 316 mg/kg) was 1.13 and 1.46.

For Cc1ccc2c(-c3ccccc3)nc(=O)n(C(C)C)c2c1 [PROQUAZONE], the IC50 (Cyclooxygenase) was 0.07 µM.

Work on CC(Nc1ccccc1C(=O)c1ccc(Cl)cc1)C(=O)O (configuration not stated) yielded a Change (Rattus norvegicus [12]) of -33%, a Change (Rattus norvegicus [5]) of -5% and an IC50 (Cyclooxygenase) of 60 µM. The Efficacy ratio (Rattus norvegicus [3]; 316 mg/kg) was 1.62 and 1.42 and the Change (Rattus norvegicus [4]) was -30%.

In the case of Cc1ccc2c(-c3ccccc3)nc(=O)n(C(C)C(=O)O)c2c1 (configuration not stated), the IC50 (Cyclooxygenase) is reported as 300 µM and the Relative potency (Rattus norvegicus [13]) is reported as “inactive”.

With CC(Oc1ccccc1C(=O)c1ccccc1)C(=O)O (configuration not stated) the Efficacy ratio (Rattus norvegicus [3]; 316 mg/kg) was 0.98 and 1.65.
